Data as given in the NIST ThermoML archive (doi:10.1021/je060271a).

Conditions: 303.15 K, Liquid, Vibrating tube method

CCCCCCCC(=O)OCC(COC(=O)CCCCCCC)(COC(=O)CCCCCCC)COC(=O)CCCCCCC [pentaerythritol tetraoctanoate]
Conditions	mass density [kg/m3]
2156.4 kPa	956.7
2179.1 kPa	956.6
2206.4 kPa	956.8
2234.6 kPa	956.8
2258 kPa	956.7
2287 kPa	956.8
2316.5 kPa	956.9
2341.8 kPa	956.8
2372.4 kPa	956.7
2402.9 kPa	957
2429.4 kPa	956.7
2462 kPa	956.8
2495.8 kPa	956.9
2524.1 kPa	957
2559.1 kPa	956.9
2596.2 kPa	957.1
2642 kPa	957
2696.3 kPa	957.1
2784.7 kPa	957.1
2865.2 kPa	957.2
2954.3 kPa	957.3
3081.5 kPa	957.2
3108.7 kPa	957.4
3121.2 kPa	957.4
3136.3 kPa	957.4
3151.3 kPa	957.4
3164 kPa	957.4
3179.1 kPa	957.5
3193.3 kPa	957.4
3204.5 kPa	957.4
3218.1 kPa	957.4
3229.7 kPa	957.4
3242.8 kPa	957.4
3256.4 kPa	957.5
3270.2 kPa	957.4
3284.1 kPa	957.5
3580.6 kPa	957.6
3702.5 kPa	957.6
3720 kPa	957.5
3734.9 kPa	957.7
3753.7 kPa	957.7
3901.1 kPa	957.9
4311.5 kPa	958.1
4330 kPa	958
4352.8 kPa	958.1
4371.7 kPa	958.1
4395.1 kPa	958.1
4412.6 kPa	958.1
4416.5 kPa	958.2
4419.7 kPa	958.2
4422.8 kPa	958.2
4423.3 kPa	958.2
4424.2 kPa	958.1
4426.8 kPa	958.2
4435.8 kPa	958.1
4446.7 kPa	958.3
4455.8 kPa	958.2
4466.6 kPa	958
4475.6 kPa	958.1
4486.7 kPa	958.2
4542.6 kPa	958.3
4584.4 kPa	958.1
4608.3 kPa	958.4
4628.1 kPa	958.3
4651.8 kPa	958.3
4675.6 kPa	958.3
4696.6 kPa	958.2
4717 kPa	958.3
4742.3 kPa	958.4
4763.2 kPa	958.3
4788.5 kPa	958.3
4809.9 kPa	958.5
4835.7 kPa	958.4
4857.2 kPa	958.4
4981.8 kPa	958.4
5009.3 kPa	958.4
5033 kPa	958.5
5062 kPa	958.5
5085.4 kPa	958.5
5113.6 kPa	958.5
5138.1 kPa	958.6
5167.4 kPa	958.5
5197.3 kPa	958.7
5221.9 kPa	958.5
5251.8 kPa	958.7
5277.7 kPa	958.7
5335.3 kPa	958.6
5367.5 kPa	958.6
5396 kPa	958.7
5428.7 kPa	958.7
5455.7 kPa	958.7
5489.1 kPa	958.8
5517.5 kPa	958.8
5552 kPa	958.7
5581.6 kPa	958.8
5767 kPa	959
5794 kPa	959.1
5810.8 kPa	959
5827.4 kPa	959
5847.7 kPa	959
5864.7 kPa	959.1
5884.7 kPa	959.1
5905.3 kPa	959.1
5922.3 kPa	959.1
5943.2 kPa	959
5960.8 kPa	959.2
5981.9 kPa	959.1
5999.7 kPa	959.2
6021.7 kPa	959.2
6040 kPa	959.2
6060.9 kPa	959.1
6079.2 kPa	959.1
6100.3 kPa	959.1
6121.9 kPa	959.2
6140.7 kPa	959.2
6163.6 kPa	959.3
6182 kPa	959.2
6204.5 kPa	959.3
6223.9 kPa	959.3
6247 kPa	959.2
6267.1 kPa	959.2
6290.2 kPa	959.3
6308.9 kPa	959.3
6332.4 kPa	959.2
6355.9 kPa	959.3
6375.8 kPa	959.2
6400.1 kPa	959.3
6445.1 kPa	959.4
6470.5 kPa	959.3
6490.8 kPa	959.3
6583.6 kPa	959.4
6610.2 kPa	959.4
6631.8 kPa	959.5
6658.3 kPa	959.5
6679.2 kPa	959.5
6705.9 kPa	959.6
6728.4 kPa	959.5
6755.2 kPa	959.5
6783 kPa	959.5
6805.9 kPa	959.6
6833.9 kPa	959.6
6861.7 kPa	959.7
6913.4 kPa	959.7
7101.4 kPa	959.8
7125.9 kPa	959.9
7156.7 kPa	959.7
7182.6 kPa	959.8
7214 kPa	959.8
